Data: a melting point compilation (Tetko et al.; mined from patent text by program, amines drawn as free bases though some values may be those of a salt)

melting point [°C] | Structure (SMILES)
185 to 186 | COc1ccc(-c2c(C(=O)c3ccccc3)c(CSc3nccn3C)nc3cc(OC)c(OC)cc23)cc1OC
136 to 139 | CC(C)(C)c1cc(SCCOC(=O)c2cc(C(C)(C)C)c(O)c(C(C)(C)C)c2)cc(C(C)(C)C)c1O
50 to 53 | CC(=O)NC(Cc1c[nH]c2ccccc12)C(=O)CCc1cc(C(F)(F)F)cc(C(F)(F)F)c1 (stereo not drawn)
83.5 | CCOC(=O)c1cc(C(=O)OCC)cc([N+](=O)[O-])c1
230 | COc1cc(N)c(Cl)cc1C(=O)NCCN1CCC(n2c(=O)[nH]c3ccccc32)CC1
113 to 115 | FC(F)(F)c1ccc(C=Cc2nc(CNc3ccc(CCCCn4ccnn4)cc3)co2)cc1
95 to 96 | CC(C)(C(=O)NO)C(O)Cc1ccccc1 (stereo not drawn)
187 to 191 | CCCn1nc(C2CC2)c(C(N)=O)c1Cc1ccc(-c2ccccc2S(=O)(=O)NC(=O)c2ccccc2)cc1
117 to 118 | c1cncc(-c2c[nH]cn2)c1
158 to 160 | CC(CO)CCCC(C)C1CCC2C3CC=C4CCCC(O)C4(C)C3CCC12C (stereo not drawn)
209 to 211 | Oc1ccc2c(-c3ccccn3)noc2c1Cl
185 to 187 | CNC(=O)c1ccccc1Nc1nc(Nc2c(OC)ccc3c2C(=O)N(C)CCC3)ncc1Cl
105 to 107 | Oc1ccc2c(c1CNc1ccccc1)CCCO2
45 | CCOC(=O)C(=Cc1cccc(OC)c1)C(=O)OCC
95 | Cc1cc(Oc2cccc(C#N)n2)n(C)n1
119 to 121 | N#Cc1cc(C(=O)Cl)n(/C=C/c2ccccc2)c1
53 to 55 | C=CCc1cc(N2CCN(c3ccncc3)CC2)ccc1OCCCC(=O)OCC
220 to 221 | CC[C@H](C)[C@H](NC(=O)OCc1ccccn1)C(=O)NC(Cc1ccccc1)C(O)C(O)C(Cc1ccccc1)NC(=O)[C@@H](NC(=O)OCc1ccccn1)[C@@H](C)CC (stereo partly drawn)
> 300 | O=C1CC2CCc3cc(-n4ccc(=O)cc4)ccc3C2=NN1 (stereo not drawn)
73 to 74 | CC(=O)NC(CCOC(C)=O)(CCOC(C)=O)CCc1ccccc1
128 to 130 | CS(=O)(=O)c1ccc(C(Cc2ccc(F)cc2)C(=O)Nc2nc3ccc(CO)cc3o2)cc1 (stereo not drawn)
96 to 102 | OCCCc1ccc(Sc2ccc(CCCO)cc2C(F)(F)F)c(C(F)(F)F)c1
73.6 | BrC=C1c2ccccc2CCc2ccccc21
> 260 | O=C(O)Cc1cc(C(=O)c2cccc(C(=O)O)c2)ccc1O

melting point [°C] | Structure (SMILES)
169 to 173 | COc1cc2c(=O)ccn(C)c2cc1OC
201 | CC1=CC(c2ccccc2C(F)(F)F)C([N+](=O)[O-])=C(C)N1 (stereo not drawn)
191 to 192 | CC(C)N(C(=O)c1ccc(CN2CCOc3cnccc32)c(Br)c1)C1CCCCC1
150 to 151 | Cc1cc(-c2cc(CN3CCN(C)CC3)c(=O)n(Cc3ccccc3Cl)n2)ccc1F
162 to 164 | CS(=O)c1[nH]ccc1[N+](=O)[O-] (stereo not drawn)
255 to 256 | Cc1nc(N2CCCC(CO)C2)c2nc(-c3ccccc3)cc-2[nH]1 (stereo not drawn)
150 | CSC(=NC(=O)CS(C)(=O)=O)N(C)N=Cc1ccccc1
210 to 212 | CCSc1nc(-c2ccccc2)cc2nnc(C)n12
183 to 184 | CN(C)c1ncc(-c2cccc(-n3cnc4cc(-c5ccoc5)ccc43)c2)cn1
147 to 149 | COc1ccc2oc(-c3nc4c(s3)NCCCC4C(C)=O)cc2c1 (stereo not drawn)
166 to 167 | Cc1ccc(Cn2cnc3c(-c4ccco4)ncnc32)cc1
211 to 216 | O=Cc1ccc2c(c1)C=C(C(=O)O)C(C(F)(F)F)O2 (stereo not drawn)
136 to 138 | Cc1ccc(-c2cccnc2C#N)cc1
69 to 70 | Cc1cc(CCCCCOc2c(C)cc(-c3nnn(CCO)n3)cc2C)on1
> 250 | Cc1ccn2cc(CC(=O)N3CCN(c4ccc5[nH]c(=O)ccc5c4)CC3)nc2c1
271 | Cc1cc(C#N)cc(C)c1Oc1nc(Nc2ccc(C#N)cc2)nc(N)c1Br
169 to 171 | CC(=O)n1nc(-c2c(C)cc(C)c([N+](=O)[O-])c2C)n2nc(C(C)(C)C)cc12
96 | Ic1cccc(C=Cc2ccccc2)c1
160 to 161 | CC(=O)OCC1OC([NH+]2C=NC(C#N)=C2[O-])C(OC(C)=O)C1OC(C)=O (stereo not drawn)
152 to 155 | N#Cc1ccsc1S(N)(=O)=O
91 to 94 | COC(=O)CCCc1cc2nc(C)ccc2n1S(=O)(=O)c1ccccc1
142 to 143 | CCC(CC)COc1c(C)nc(N)nc1N
222 to 223 | Cc1cc2c(-c3cccc(Br)c3)c(CC(=O)Nc3ccc(F)cc3C(F)(F)F)c(=O)oc2cc1Cl
137 to 138 | CCOC(=O)N1CCN(C2=Nc3ccccc3Cc3ccccc32)CC1

melting point [°C] | Structure (SMILES)
265 to 267 | CC(C)(C)c1cc(C(=O)Nc2ccc(Cl)c(C(=O)O)c2)cc(C(C)(C)C)c1O
100 to 105 | CC#CCOc1ccc(OCC(=O)OCC)cc1
133 | Cc1cc(SCc2ccc(OCc3ccc(C(F)(F)F)cc3)cc2)ccc1OCC(=O)O
102 to 104 | COc1ccoc1C1OC(=O)NC1=O (stereo not drawn)
232 to 234 | COc1ccc2c(c1)Sc1ccccc1C(=O)N2
190 to 192 | COc1ccnc(Nc2nc(-c3ccncc3)cs2)c1
245 to 247 | CCOC(=O)N1CCN(c2ncnc3[nH]ncc23)CC1
66 | CCOCc1cc2c(N=C=S)cccc2cn1
130 to 132 | CN1CCN(CCCCNc2ncc3cc(-c4c(Cl)cccc4Cl)c(=O)n(C)c3n2)CC1
110 to 113 | COC=C(C(=O)OC)c1ccccc1[C@@H]1O[C@H]1c1ccccc1 (relative stereo)
70 to 73 | NC(=O)c1ccc(CCCCCCN2CCOCC2)cc1O
65 to 66 | CCN(CC)CCOC(=O)c1ccc(/C=C(\C)c2ccc3c(c2)C(C)(C)CCC3(C)C)cc1
170 to 173 | COc1ccc2c(c1)c1c3c(c(-c4ccccc4)cc1n2CCCCCCO)C(=O)NC3=O
236 to 237 | C=CCc1cc(Cc2cnc(N)nc2N)c2ccc(C)nc2c1O
205 to 206 | CS(=O)c1ccnc(-c2nc(=O)c3ccccc3s2)c1 (stereo not drawn)
201 to 202 | O=c1c2cc3ccccc3cc2oc2cc(OCC3CO3)cc(O)c12 (stereo not drawn)
124 to 126 | CCOC(=O)C1=CC(=NO)CC(c2ccc(Cl)cc2F)N1 (stereo not drawn)
222 to 223 | COc1cc(Nc2nc3cccc(-c4ccc(C#N)cc4)c3o2)cc(OC)c1OC
204 to 206 | OCCn1cc(-c2ccc3nnn(Cc4ccc(F)cc4)c3n2)cn1
63 to 65 | COc1cc(OC)nc(Oc2cccc(O)c2C(=O)OCc2ccccc2)n1
171 to 174 | CCCc1cc(-c2cccs2)n[nH]c1=O
174 | CC1CCNC(=C2C(=O)CC(C)(C)CC2=O)C1 (stereo not drawn)
64 to 65 | O=C1NCCN1OCc1ccccc1

Structure (SMILES) | melting point [°C]
CN(C)C=CC=C(C#N)c1cccnc1 | 117 to 120
O=C(O)CN(C(=O)Cc1ccc(Cl)c(Cl)c1)[C@H](CN1CC[C@H](O)C1)c1ccccc1 | 162 to 164
